Data on 20 compounds can be found in PubChem BioAssay AID328 (DTP/NCI, 2004).

“And” between values parts separate entries of the source, which are not always exact repeats. Equal values may be shown once. Inconclusive results and toxic doses are left out.

In this assay the test system is BDF1 mice, P388 leukemia ip, median survival T/C. In words: NCI In Vivo Anticancer Drug Screen. Data for tumor model P388 Leukemia (intraperitoneal) in B6D2F1 (BDF1) mice. Particulars: endpoint: median survival time, higher = longer survival. Put shortly: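 In tumour-bearing mice, survival after compound treatment is set against the vehicle group and given as a quotient.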

The mark [1] stands for this setting: dose: 50.0 mg/kg/injection, schedule: Q01DX009 (ip), vehicle: saline with Tween-80.
Where [2] appears, read: dose: 100.0 mg/kg/injection, schedule: Q01DX009 (ip), vehicle: saline with Tween-80.
[3] abbreviates: dose: 200.0 mg/kg/injection, schedule: Q01DX009 (ip), vehicle: saline with Tween-80.
Setting [4] is: dose: 400.0 mg/kg/injection, schedule: Q01DX009 (ip), vehicle: saline with Tween-80.
The mark [5] stands for this setting: dose: 100.0 mg/kg/injection, schedule: Q04DX003 (ip), vehicle: Klucel (hydroxypropylcellulose) (HPC).
Setting [6] is: dose: 200.0 mg/kg/injection, schedule: Q04DX003 (ip), vehicle: Klucel (hydroxypropylcellulose) (HPC).
Where [7] appears, read: dose: 400.0 mg/kg/injection, schedule: Q04DX003 (ip), vehicle: Klucel (hydroxypropylcellulose) (HPC).
Setting [8] is: dose: 100.0 mg/kg/injection, schedule: Q04DX003 (ip), vehicle: saline.
Setting [9] is: dose: 200.0 mg/kg/injection, schedule: Q04DX003 (ip), vehicle: saline.
The mark [10] stands for this setting: dose: 25.0 mg/kg/injection, schedule: Q01DX009 (ip), vehicle: Klucel (hydroxypropylcellulose) (HPC).
Setting [11] is: dose: 100.0 mg/kg/injection, schedule: Q04DX003 (ip), vehicle: saline with Tween-80.
[12] abbreviates: dose: 200.0 mg/kg/injection, schedule: Q04DX003 (ip), vehicle: saline with Tween-80.
The mark [13] stands for this setting: dose: 50.0 mg/kg/injection, schedule: Q01DX009 (ip), vehicle: Klucel (hydroxypropylcellulose) (HPC).
[14] abbreviates: dose: 6.25 mg/kg/injection, schedule: Q01DX009 (ip), vehicle: saline.
[15] abbreviates: dose: 400.0 mg/kg/injection, schedule: Q04DX003 (ip), vehicle: saline with Tween-80.

Turning to `O=C(NC(=S)N1CC=CCC1)c1ccccc1`, the T/C is, setting by setting: under setting [1], 87 % of control; under setting [2], 111 % of control; under setting [3], 108 % of control; under setting [4], 101 % of control.

Take `Cc1c(N)c2ccccc2c(=O)n1C`: the T/C by setting is: (dose: 50.0 mg/kg/injection, schedule: Q01DX005 (ip), vehicle: saline with Tween-80) 92 % of control; (dose: 100.0 mg/kg/injection, schedule: Q01DX005 (ip), vehicle: saline with Tween-80) 97 % of control; (dose: 200.0 mg/kg/injection, schedule: Q01DX005 (ip), vehicle: saline with Tween-80) 106 % of control.

Regarding `OC12C3CCCC1CCCC2CCC3` (stereo not drawn), the T/C is 100 % of control and 108 % of control under setting [5]; 108 % of control (dose: 100.0 mg/kg/injection, schedule: Q04DX003 (ip), vehicle: saline sonified); 91 % of control and 100 % of control under setting [6]; 90 % of control and 108 % of control (dose: 200.0 mg/kg/injection, schedule: Q04DX003 (ip), vehicle: saline sonified); 100 % of control under setting [7]; 109 % of control and 108 % of control (dose: 400.0 mg/kg/injection, schedule: Q04DX003 (ip), vehicle: saline sonified).

For the compound `Sc1ccccc1-n1c(-c2ccccc2)ccc1-c1ccccc1`, the T/C is 101 % of control under setting [1], 88 % of control under setting [2], 87 % of control under setting [3] and 102 % of control under setting [4].

Consider `O=C1CCCN1C1=CC2=C(CCc3ccccc32)S(=O)(=O)O1`, for which the T/C is, setting by setting: under setting [8], 90 % of control; under setting [9], 100 % of control; (dose: 400.0 mg/kg/injection, schedule: Q04DX003 (ip), vehicle: saline) 100 % of control.

As for `CN(C)C(=S)Sc1ccc([N+](=O)[O-])cc1[N+](=O)[O-]`, the T/C was 100 % of control (dose: 100.0 mg/kg/injection, schedule: Q01DX001 (ip), vehicle: Klucel (hydroxypropylcellulose) (HPC)); 100 % of control under setting [5]; 100 % of control (dose: 200.0 mg/kg/injection, schedule: Q01DX001 (ip), vehicle: Klucel (hydroxypropylcellulose) (HPC)); 104 % of control under setting [6]; 100 % of control (dose: 400.0 mg/kg/injection, schedule: Q01DX001 (ip), vehicle: Klucel (hydroxypropylcellulose) (HPC)); 108 % of control under setting [7].

Regarding `CCOC(=O)CNC(=O)Sc1ccc(C(C)(C)C)cc1`, the T/C is, setting by setting: under setting [10], 121 % of control; (dose: 200.0 mg/kg/injection, schedule: Q01DX009 (ip), vehicle: Klucel (hydroxypropylcellulose) (HPC)) 108 % of control.

In the case of `COc1cc(-c2nc3ccccc3c(=O)o2)cc(OC)c1OC`, the T/C runs as follows: under setting [1], 105 % of control; under setting [2], 115 % of control; under setting [11], 100 % of control; under setting [3], 100 % of control; under setting [12], 100 % of control.

Regarding `O=C(O)CCCCc1ccc(CCCCC(=O)O)cc1`, the T/C under setting [10] is 104 % of control; the T/C under setting [13] is 104 % of control; the T/C (dose: 100.0 mg/kg/injection, schedule: Q01DX009 (ip), vehicle: Klucel (hydroxypropylcellulose) (HPC)) was 90 % of control; the T/C (dose: 150.0 mg/kg/injection, schedule: Q04DX003 (ip), vehicle: Klucel (hydroxypropylcellulose) (HPC)) was 120 % of control.

Consider `COc1ccc(C(C#N)N2CCCCC2)cc1` (stereo not drawn), for which the T/C is 115 % of control (dose: 12.5 mg/kg/injection, schedule: Q01DX009 (ip), vehicle: Klucel (hydroxypropylcellulose) (HPC)); 100 % of control under setting [10]; 113 % of control (dose: 25.0 mg/kg/injection, schedule: Q04DX003 (ip), vehicle: Klucel (hydroxypropylcellulose) (HPC)); 100 % of control under setting [13]; 100 % of control (dose: 50.0 mg/kg/injection, schedule: Q04DX003 (ip), vehicle: Klucel (hydroxypropylcellulose) (HPC)); 100 % of control and 104 % of control under setting [5].

Regarding `CC[CH2][Pb]([CH2]CC)([CH2]CC)[O]C(=O)C(F)(F)F`, the T/C was 113 % of control (dose: 4.0 mg/kg/injection, schedule: Q01DX009 (ip), vehicle: Klucel (hydroxypropylcellulose) (HPC)); 122 % of control (dose: 4.0 mg/kg/injection, schedule: Q01DX009 (ip), vehicle: saline with Tween-80); 111 % of control (dose: 6.0 mg/kg/injection, schedule: Q01DX009 (ip), vehicle: Klucel (hydroxypropylcellulose) (HPC)); 150 % of control (dose: 6.0 mg/kg/injection, schedule: Q01DX009 (ip), vehicle: saline with Tween-80).

Consider `CCOC(=O)Cc1csc2nc(-c3ccccc3)nn12`, for which the T/C was 106 % of control under setting [1], 108 % of control under setting [2] and 115 % of control under setting [3].

Turning to `Cc1ccc(CNc2cc(C)ccn2)cc1`, the T/C is 105 % of control (dose: 50.0 mg/kg/injection, schedule: Q04DX003 (ip), vehicle: saline with Tween-80); 110 % of control under setting [11]; 110 % of control under setting [12].

As to `Clc1nc2n[nH]nc2nc1Cl`, the T/C runs as follows: (dose: 3.13 mg/kg/injection, schedule: Q01DX009 (ip), vehicle: saline) 100 % of control; under setting [14], 95 % of control.

On to `CCCNC1=C(C)C(=O)C2=C(C1=O)[C@H](COC(N)=O)[C@]1(OC)[C@@H]3N[C@@H]3CN21`, for which the T/C (dose: 2.0 mg/kg/injection, schedule: Q01DX009 (ip), vehicle: saline sonified) was 205 % of control; the T/C (dose: 2.0 mg/kg/injection, schedule: Q01DX009 (ip), vehicle: saline) was 180 % of control; the T/C (dose: 3.0 mg/kg/injection, schedule: Q01DX009 (ip), vehicle: saline) was 200 % of control; the T/C (dose: 3.13 mg/kg/injection, schedule: Q01DX009 (ip), vehicle: saline sonified) is 150 % of control.

`Cc1cc2nc(CBr)c(CBr)nc2cc1C`: the T/C is 120 % of control (dose: 1.56 mg/kg/injection, schedule: Q01DX009 (ip), vehicle: saline); 120 % of control (dose: 3.12 mg/kg/injection, schedule: Q01DX009 (ip), vehicle: saline); 95 % of control (dose: 3.12 mg/kg/injection, schedule: Q04DX003 (ip), vehicle: saline); 95 % of control under setting [14]; 100 % of control (dose: 6.25 mg/kg/injection, schedule: Q04DX003 (ip), vehicle: saline); 94 % of control (dose: 8.75 mg/kg/injection, schedule: Q01DX001 (ip), vehicle: Klucel (hydroxypropylcellulose) (HPC)). For the same compound, the T/C is 90 % of control (dose: 12.5 mg/kg/injection, schedule: Q04DX003 (ip), vehicle: saline); 88 % of control (dose: 17.5 mg/kg/injection, schedule: Q01DX001 (ip), vehicle: Klucel (hydroxypropylcellulose) (HPC)); 90 % of control (dose: 18.0 mg/kg/injection, schedule: Q04DX003 (ip), vehicle: saline); 88 % of control (dose: 35.0 mg/kg/injection, schedule: Q01DX001 (ip), vehicle: Klucel (hydroxypropylcellulose) (HPC)).

As for `CCCCCCC(=O)CC(SCC)c1ccc(Cl)cc1Cl` (stereo not drawn), the T/C was 98 % of control under setting [1], 104 % of control under setting [2] and 104 % of control under setting [3].

On to `CC(=O)[C@H]1CC[C@H]2[C@@H]3CCC4=CC(=O)[C@H](C)C[C@]4(C)[C@@]3(F)C(=O)C[C@]12C`, for which the T/C under setting [2] was 95 % of control; the T/C under setting [11] is 120 % of control; the T/C under setting [3] is 90 % of control; the T/C under setting [12] was 110 % of control; the T/C under setting [15] was 100 % of control.

As to `CC(C)Cc1[nH]nc2c1C(=O)C(Nc1ccccc1)=CC2=O`, the T/C was 99 % of control under setting [11], 100 % of control under setting [12] and 100 % of control under setting [15].

In the case of `CCOP(=O)(OCC)OCCCN(CC)CC`, the T/C by setting is: (dose: 25.0 mg/kg/injection, schedule: Q01DX009 (ip), vehicle: saline) 118 % of control; (dose: 50.0 mg/kg/injection, schedule: Q01DX009 (ip), vehicle: saline) 114 % of control; (dose: 50.0 mg/kg/injection, schedule: Q04DX003 (ip), vehicle: saline) 100 % of control; (dose: 100.0 mg/kg/injection, schedule: Q01DX009 (ip), vehicle: saline) 100 % of control; under setting [8], 107 % of control; (dose: 200.0 mg/kg/injection, schedule: Q01DX009 (ip), vehicle: saline) 89 % of control. Besides, the T/C reads like this: under setting [9], 110 % of control; (dose: 300.0 mg/kg/injection, schedule: Q04DX003 (ip), vehicle: saline) 105 % of control.
